Series [1] concerns the target T1, C-C chemokine receptor type 7 (Homo sapiens) (UniProt P32248).
T1 sequence (whole entry): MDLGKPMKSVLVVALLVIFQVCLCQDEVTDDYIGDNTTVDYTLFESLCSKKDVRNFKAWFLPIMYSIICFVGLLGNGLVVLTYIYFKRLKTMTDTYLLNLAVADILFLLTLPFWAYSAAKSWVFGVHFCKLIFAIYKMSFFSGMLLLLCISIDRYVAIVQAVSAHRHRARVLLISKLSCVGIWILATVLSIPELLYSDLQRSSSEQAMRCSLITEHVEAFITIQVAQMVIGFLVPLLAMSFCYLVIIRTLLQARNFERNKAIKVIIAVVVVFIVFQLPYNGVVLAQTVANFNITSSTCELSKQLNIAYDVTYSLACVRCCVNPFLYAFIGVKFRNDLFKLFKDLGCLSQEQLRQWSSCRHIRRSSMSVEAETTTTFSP
In words: Antagonist activity at CCR7 (unknown origin) assessed as inhibition of chemotaxis at 10 uM.

The target of series [2] is C-C chemokine receptor type 5 (Homo sapiens) (UniProt P51681). In words: Antagonist activity at CCR5 (unknown origin) assessed as inhibition of chemotaxis at 10 uM.
Series [3] addresses T2, C-C chemokine receptor type 3 (Homo sapiens) (UniProt P51677).
T2 sequence (whole entry): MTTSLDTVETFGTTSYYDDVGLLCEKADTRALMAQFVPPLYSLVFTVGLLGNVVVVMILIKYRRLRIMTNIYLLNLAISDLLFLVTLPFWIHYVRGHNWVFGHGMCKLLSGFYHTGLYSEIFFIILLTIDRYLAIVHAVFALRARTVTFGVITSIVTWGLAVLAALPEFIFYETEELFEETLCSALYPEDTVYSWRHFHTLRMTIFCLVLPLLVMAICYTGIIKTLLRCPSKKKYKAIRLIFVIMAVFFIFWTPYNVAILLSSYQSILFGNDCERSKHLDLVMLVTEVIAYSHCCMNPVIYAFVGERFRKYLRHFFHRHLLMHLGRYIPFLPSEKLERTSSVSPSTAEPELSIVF
In words: Antagonist activity at CCR3 (unknown origin) assessed as inhibition of chemotaxis at 10 uM.

Series [4] has as its target T3, CX3C chemokine receptor 1 (Homo sapiens) (UniProt P49238).
T3 sequence (whole entry): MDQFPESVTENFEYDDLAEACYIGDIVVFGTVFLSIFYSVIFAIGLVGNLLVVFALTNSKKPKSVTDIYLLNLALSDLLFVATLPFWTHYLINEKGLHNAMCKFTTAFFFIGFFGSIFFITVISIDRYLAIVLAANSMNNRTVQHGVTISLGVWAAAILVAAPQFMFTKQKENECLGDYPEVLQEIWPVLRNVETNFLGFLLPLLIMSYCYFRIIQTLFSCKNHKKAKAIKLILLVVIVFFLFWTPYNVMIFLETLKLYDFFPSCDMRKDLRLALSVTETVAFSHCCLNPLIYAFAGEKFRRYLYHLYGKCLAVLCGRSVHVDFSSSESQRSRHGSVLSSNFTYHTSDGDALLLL
In words: Antagonist activity at CX3CR1 (unknown origin) assessed as inhibition of calcium flux at 10 uM. The format is functional.

Series [5] concerns the target T4, C-X-C chemokine receptor type 3 (Homo sapiens) (UniProt P49682).
T4 sequence (whole entry): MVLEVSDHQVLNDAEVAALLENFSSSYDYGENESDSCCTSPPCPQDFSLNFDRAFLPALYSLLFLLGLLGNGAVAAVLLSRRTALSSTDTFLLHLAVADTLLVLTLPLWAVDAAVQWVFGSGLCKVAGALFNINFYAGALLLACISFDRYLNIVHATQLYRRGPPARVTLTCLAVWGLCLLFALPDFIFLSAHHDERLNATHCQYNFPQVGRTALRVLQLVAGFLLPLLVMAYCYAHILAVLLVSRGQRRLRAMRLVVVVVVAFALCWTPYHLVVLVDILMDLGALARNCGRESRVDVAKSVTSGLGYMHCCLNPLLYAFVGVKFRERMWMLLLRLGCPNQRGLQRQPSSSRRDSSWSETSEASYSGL
In words: Antagonist activity at CXCR3 (unknown origin) assessed as inhibition of calcium flux at 10 uM. In kind it is functional. In general terms: A change in cytosolic calcium serves as a functional read-out for many receptors and channels.

Another series relates to Cytomegalovirus. In words: Binding affinity to CMV US28 at 10 uM by radioligand displacement assay. In general terms: In a radioligand displacement assay an active substance lowers the binding of a labelled ligand.
Series [6] addresses C-X-C chemokine receptor type 6 (Homo sapiens) (UniProt O00574). In words: Binding affinity to CXCR6 (unknown origin) at 10 uM by radioligand displacement assay.
The target in series [7] is T5, C-X-C chemokine receptor type 5 (Homo sapiens) (UniProt P32302).
T5 sequence (whole entry): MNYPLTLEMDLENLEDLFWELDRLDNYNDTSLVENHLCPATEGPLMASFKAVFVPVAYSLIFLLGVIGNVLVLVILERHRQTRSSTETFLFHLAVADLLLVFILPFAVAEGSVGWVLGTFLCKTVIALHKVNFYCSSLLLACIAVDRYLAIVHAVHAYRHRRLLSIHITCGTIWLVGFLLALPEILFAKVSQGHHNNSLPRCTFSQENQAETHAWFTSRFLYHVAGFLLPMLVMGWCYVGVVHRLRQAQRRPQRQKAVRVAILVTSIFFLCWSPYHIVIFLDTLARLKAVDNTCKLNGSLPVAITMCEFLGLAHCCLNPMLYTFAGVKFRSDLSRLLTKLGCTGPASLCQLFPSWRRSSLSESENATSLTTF
In words: Binding affinity to CXCR5 (unknown origin) at 10 uM by radioligand displacement assay.

The target of series [8] is C-X-C chemokine receptor type 4 (Homo sapiens) (UniProt P61073). In words: Binding affinity to CXCR4 (unknown origin) at 10 uM by radioligand displacement assay.
For series [9], the target named is C-C chemokine receptor type 8 (Homo sapiens) (UniProt P51685). In words: Binding affinity to CCR8 (unknown origin) at 10 uM by radioligand displacement assay.
Series [10] addresses C-C chemokine receptor type 2 (Homo sapiens) (UniProt P41597). In words: Binding affinity to CCR2 (unknown origin) at 10 uM by radioligand displacement assay.
For series [11], the target named is Voltage-gated inwardly rectifying potassium channel KCNH2 (Homo sapiens, UniProt Q12809). In words: Binding affinity to human ERG by patch clamp assay.
Another series has as its system Rattus norvegicus. In words: Toxicity in Sprague-Dawley rat assessed as effect on blood chemistry at 70 to 360 mg/kg, po after 7 days. In kind it is organism-based. Details: dose 70-360 mg/kg, route oral. Conditions: in vivo, 168 h.
A short description of series [12]: Half life in Beagle dog at 1 mg/kg, iv. In kind it is ADME, organism-based, Canis lupus familiaris. Details: dose 1 mg/kg, route intravenous. Particulars: in vivo.

pIC50: −log10 of the molar value. Activity calls are given as the source filed them. The calls are words filed in the database; no cut-off is given here.

One compound from ChEMBL document CHEMBL2321873, “1-(4-Phenylpiperazin-1-yl)-2-(1H-pyrazol-1-yl)ethanones as novel CCR1 antagonists” (Bioorg Med Chem Lett, 2013) can be followed below.

Voltage-gated inwardly rectifying potassium channel KCNH2, sequence (Q12809 whole entry): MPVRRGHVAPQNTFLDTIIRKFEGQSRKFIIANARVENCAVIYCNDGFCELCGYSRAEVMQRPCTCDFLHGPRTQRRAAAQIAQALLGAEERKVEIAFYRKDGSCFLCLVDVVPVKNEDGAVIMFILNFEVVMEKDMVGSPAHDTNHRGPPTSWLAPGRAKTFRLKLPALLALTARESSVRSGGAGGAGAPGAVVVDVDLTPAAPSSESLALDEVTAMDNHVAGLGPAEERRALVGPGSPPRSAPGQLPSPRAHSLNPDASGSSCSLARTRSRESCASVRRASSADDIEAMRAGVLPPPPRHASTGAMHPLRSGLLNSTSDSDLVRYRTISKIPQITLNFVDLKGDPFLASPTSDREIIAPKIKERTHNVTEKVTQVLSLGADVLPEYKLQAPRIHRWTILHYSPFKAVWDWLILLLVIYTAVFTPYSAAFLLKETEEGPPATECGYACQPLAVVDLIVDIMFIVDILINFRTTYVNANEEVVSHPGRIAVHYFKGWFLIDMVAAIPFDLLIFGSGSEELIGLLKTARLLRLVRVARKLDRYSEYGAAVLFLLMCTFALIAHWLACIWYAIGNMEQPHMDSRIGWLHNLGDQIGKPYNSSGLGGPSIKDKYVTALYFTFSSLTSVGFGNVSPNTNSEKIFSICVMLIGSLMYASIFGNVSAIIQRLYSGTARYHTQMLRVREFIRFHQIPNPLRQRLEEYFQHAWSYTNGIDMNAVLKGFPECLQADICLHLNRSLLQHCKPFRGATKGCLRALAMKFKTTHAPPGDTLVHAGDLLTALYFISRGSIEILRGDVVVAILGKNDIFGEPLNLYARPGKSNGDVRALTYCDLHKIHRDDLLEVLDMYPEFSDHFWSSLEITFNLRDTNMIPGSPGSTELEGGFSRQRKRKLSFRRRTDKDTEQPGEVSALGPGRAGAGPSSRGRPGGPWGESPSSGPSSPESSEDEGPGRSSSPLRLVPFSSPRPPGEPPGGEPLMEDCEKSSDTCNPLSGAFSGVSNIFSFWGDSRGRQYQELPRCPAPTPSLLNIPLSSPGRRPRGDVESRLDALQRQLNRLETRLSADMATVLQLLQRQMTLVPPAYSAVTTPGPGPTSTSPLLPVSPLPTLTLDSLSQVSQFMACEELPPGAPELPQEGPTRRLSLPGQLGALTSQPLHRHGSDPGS
C-X-C chemokine receptor type 4 (Homo sapiens), sequence (P61073 whole entry): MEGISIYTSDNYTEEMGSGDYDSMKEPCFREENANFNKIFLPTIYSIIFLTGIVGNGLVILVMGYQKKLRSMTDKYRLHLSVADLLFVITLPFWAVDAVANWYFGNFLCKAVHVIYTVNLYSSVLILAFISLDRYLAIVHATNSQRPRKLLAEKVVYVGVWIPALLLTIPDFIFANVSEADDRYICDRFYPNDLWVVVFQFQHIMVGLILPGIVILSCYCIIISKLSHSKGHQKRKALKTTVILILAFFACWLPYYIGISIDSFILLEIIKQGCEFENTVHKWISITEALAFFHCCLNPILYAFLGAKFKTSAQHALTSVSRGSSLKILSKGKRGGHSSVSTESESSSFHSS
C-X-C chemokine receptor type 6 (Homo sapiens), sequence (O00574 whole entry, looked up): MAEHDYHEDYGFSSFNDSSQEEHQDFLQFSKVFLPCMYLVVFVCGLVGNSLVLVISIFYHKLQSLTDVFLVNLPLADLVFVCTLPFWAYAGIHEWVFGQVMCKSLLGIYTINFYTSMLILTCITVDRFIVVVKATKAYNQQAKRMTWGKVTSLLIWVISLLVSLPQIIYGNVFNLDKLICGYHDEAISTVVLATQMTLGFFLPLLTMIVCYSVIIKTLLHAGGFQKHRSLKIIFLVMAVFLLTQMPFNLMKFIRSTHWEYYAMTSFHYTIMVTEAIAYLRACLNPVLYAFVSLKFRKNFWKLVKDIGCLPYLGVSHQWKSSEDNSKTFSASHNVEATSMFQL
C-C chemokine receptor type 8 (Homo sapiens), sequence (P51685 whole entry): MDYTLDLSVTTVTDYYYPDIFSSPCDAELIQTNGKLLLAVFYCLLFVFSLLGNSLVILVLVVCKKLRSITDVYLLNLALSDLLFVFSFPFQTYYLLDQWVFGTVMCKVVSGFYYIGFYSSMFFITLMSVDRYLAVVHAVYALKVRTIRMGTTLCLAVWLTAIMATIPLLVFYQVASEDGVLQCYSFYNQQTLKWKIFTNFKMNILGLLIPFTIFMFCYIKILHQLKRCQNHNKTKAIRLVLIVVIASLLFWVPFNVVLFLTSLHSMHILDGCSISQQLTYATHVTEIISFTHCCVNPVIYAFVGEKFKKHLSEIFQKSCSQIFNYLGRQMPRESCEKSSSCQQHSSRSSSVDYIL
C-C chemokine receptor type 2 (Homo sapiens), sequence (P41597 whole entry, looked up): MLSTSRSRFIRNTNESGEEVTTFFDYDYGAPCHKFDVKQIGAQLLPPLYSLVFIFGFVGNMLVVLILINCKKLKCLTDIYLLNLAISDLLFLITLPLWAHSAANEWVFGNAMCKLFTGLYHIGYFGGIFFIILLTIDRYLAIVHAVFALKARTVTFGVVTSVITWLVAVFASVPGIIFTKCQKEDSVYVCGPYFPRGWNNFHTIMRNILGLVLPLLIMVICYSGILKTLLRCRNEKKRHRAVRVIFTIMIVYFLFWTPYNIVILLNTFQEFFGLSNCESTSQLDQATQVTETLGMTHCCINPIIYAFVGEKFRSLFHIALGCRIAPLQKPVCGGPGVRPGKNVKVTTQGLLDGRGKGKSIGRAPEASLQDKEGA
C-C chemokine receptor type 5 (Homo sapiens), sequence (P51681 whole entry, looked up): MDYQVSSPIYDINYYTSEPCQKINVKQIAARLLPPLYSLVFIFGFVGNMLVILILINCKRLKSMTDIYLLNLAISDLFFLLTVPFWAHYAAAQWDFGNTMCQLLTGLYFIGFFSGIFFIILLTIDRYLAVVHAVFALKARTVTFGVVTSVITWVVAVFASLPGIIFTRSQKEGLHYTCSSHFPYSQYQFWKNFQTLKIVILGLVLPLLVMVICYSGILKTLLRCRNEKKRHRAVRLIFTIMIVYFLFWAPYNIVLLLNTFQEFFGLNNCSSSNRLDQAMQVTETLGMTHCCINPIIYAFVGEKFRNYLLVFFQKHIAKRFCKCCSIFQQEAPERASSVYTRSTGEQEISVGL

As to `COc1cc(N2CCN(C(=O)Cn3nc(C(F)(F)F)c(Cl)c3C)CC2)ccc1Cl`, the inhibition entry in [1], in [2], in series [3], in [4] and in series [5] was “inactive” throughout. The outcome (in the series with Cytomegalovirus; in series [6]; in series [7]; in [8]; in series [9]; in [10]) was inactive. For the same compound, the pIC50 (as a rule, the IC50 on a negative log10 scale, so that one unit is a factor of ten) in series [11] was 4.80. In addition, in the series on Rattus norvegicus, the Activity result is recorded as “Non-toxic”. Also, the half-life (as a rule, how long it takes for the measured level to halve) in series [12] was 13.4 h.
